# Experimental data: ChEMBL document CHEMBL1133358, “Design, synthesis, and in vitro biological activity of benzimidazole based factor Xa inhibitors” (Bioorg Med Chem Lett, 2000)
# Experiments:
# Coagulation factor X = Coagulation factor X (Homo sapiens, UniProt P00742); experiment: In vitro inhibitory activity against human Coagulation factor X
# Serine protease 1 = molecular target: T1, Serine protease 1 (Bos taurus, UniProt P00760); experiment: In vitro inhibitory activity against bovine cationic trypsin
# T1 sequence (P00760 whole entry): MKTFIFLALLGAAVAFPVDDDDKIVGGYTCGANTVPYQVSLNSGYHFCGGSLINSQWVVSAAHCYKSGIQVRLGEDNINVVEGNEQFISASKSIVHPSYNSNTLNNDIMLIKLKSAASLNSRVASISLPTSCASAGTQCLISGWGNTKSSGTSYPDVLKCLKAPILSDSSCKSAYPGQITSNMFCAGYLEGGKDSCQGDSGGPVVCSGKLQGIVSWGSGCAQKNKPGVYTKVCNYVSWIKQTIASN
# Homo sapiens = species on record: Homo sapiens; experiment: Concentration required to double the prothrombin based clotting time in human plasma; type: functional
# Prothrombin = Prothrombin (Homo sapiens, UniProt P00734)
# Description: In vitro inhibitory activity against human coagulation factor II
# Chain of Coagulation factor X (P00742 41-179 limits assumed): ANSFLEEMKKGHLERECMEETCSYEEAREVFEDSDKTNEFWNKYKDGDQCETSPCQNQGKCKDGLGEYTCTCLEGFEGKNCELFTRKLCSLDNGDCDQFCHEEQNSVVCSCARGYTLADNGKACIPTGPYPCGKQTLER
# Chain of Coagulation factor X (P00742 235-488 limits assumed): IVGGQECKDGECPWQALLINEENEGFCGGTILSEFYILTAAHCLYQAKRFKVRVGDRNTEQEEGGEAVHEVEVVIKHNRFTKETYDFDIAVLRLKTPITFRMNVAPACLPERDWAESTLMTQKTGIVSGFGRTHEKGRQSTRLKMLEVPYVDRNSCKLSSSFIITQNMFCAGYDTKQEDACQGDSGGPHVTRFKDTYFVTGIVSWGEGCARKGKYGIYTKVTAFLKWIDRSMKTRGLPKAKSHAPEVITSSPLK
Compound,Ki (Coagulation factor X),Ki (Serine protease 1),PT (Homo sapiens),Ki (Prothrombin)
CC(=N)N1CCC(Oc2ccc3ncn(Cc4ccc5ccc(C(=N)N)cc5c4)c3c2)CC1,2.9 nM,50 nM,450 nM,810 nM
CC(=N)N1CCC(N(CCCC(=O)O)c2ccc3c(c2)nc(C)n3Cc2ccc3ccc(C(=N)N)cc3c2)CC1,370 nM,800 nM,,5000 nM
COC(=O)CN(c1ccc2c(c1)nc(C)n2Cc1ccc2ccc(C(=N)N)cc2c1)C1CCN(C(C)=N)CC1,,7.6 nM,,2700 nM
CCc1nc2cc(OC3CCN(C(C)=N)CC3)ccc2n1Cc1ccc2ccc(C(=N)N)cc2c1,4 nM,17 nM,,2100 nM
CC(=N)N1CCC(Oc2ccc3c(c2)nc(C(C)(C)C)n3Cc2ccc3ccc(C(=N)N)cc3c2)CC1,2 nM,18 nM,,950 nM
CCCc1nc2cc(OC3CCN(C(C)=N)CC3)ccc2n1Cc1ccc2ccc(C(=N)N)cc2c1,4.5 nM,16 nM,,2400 nM
CC(=N)N1CCC(N(C(=O)CCC(=O)O)c2ccc3nc(C)n(Cc4ccc5ccc(C(=N)N)cc5c4)c3c2)CC1,417 nM,670 nM,,5000 nM
CC(=N)N1CCC(N(CC(C)C(=O)O)c2ccc3c(c2)nc(C)n3Cc2ccc3ccc(C(=N)N)cc3c2)CC1 (stereo unspecified),80 nM,120 nM,,5000 nM
CCC(C)c1nc2cc(OC3CCN(C(C)=N)CC3)ccc2n1Cc1ccc2ccc(C(=N)N)cc2c1 (stereo unspecified),3.3 nM,13 nM,,2300 nM
CC(=N)N1CCC(Oc2ccc3nc(CCC(=O)O)n(Cc4ccc5ccc(C(=N)N)cc5c4)c3c2)CC1,1.3 nM,18 nM,,2670 nM
COC(=O)C(C)CN(c1ccc2nc(C)n(Cc3ccc4ccc(C(=N)N)cc4c3)c2c1)C1CCN(C(C)=N)CC1 (stereo unspecified),1.1 nM,41 nM,,300 nM
CC(=N)N1CCC(N(CC(N)=O)c2ccc3nc(C)n(Cc4ccc5ccc(C(=N)N)cc5c4)c3c2)CC1,0.46 nM,28 nM,,490 nM
CC(=N)N1CCC(Oc2ccc3c(c2)ncn3Cc2ccc3ccc(C(=N)N)cc3c2)CC1,6.3 nM,8.2 nM,,> 5000 nM
CC(=N)N1CCC(Oc2ccc3c(c2)nc(C(C)C)n3Cc2ccc3ccc(C(=N)N)cc3c2)CC1,2 nM,16 nM,,
CC(=N)N1CCC(Oc2ccc3nc(C)n(Cc4ccc5ccc(C(=N)N)cc5c4)c3c2)CC1,,,350 nM,230 nM
COC(=O)CCCN(c1ccc2nc(C)n(Cc3ccc4ccc(C(=N)N)cc4c3)c2c1)C1CCN(C(C)=N)CC1,300 nM,260 nM,,4610 nM
COC(=O)C(C)CN(c1ccc2c(c1)nc(C)n2Cc1ccc2ccc(C(=N)N)cc2c1)C1CCN(C(C)=N)CC1 (stereo unspecified),80 nM,160 nM,,5000 nM

Compound,Ki (Coagulation factor X),Ki (Serine protease 1),PT (Homo sapiens),Ki (Prothrombin)
CCOC(=O)CCC(=O)N(c1ccc2c(c1)nc(C)n2Cc1ccc2ccc(C(=N)N)cc2c1)C1CCN(C(C)=N)CC1,370 nM,800 nM,,5000 nM
CC(=N)N1CCC(Oc2ccc3nc(CCC(N)=O)n(Cc4ccc5ccc(C(=N)N)cc5c4)c3c2)CC1,1 nM,4.4 nM,,590 nM
CC(=N)N1CCC(Oc2ccc3c(c2)nc(C)n3Cc2ccc3ccc(C(=N)N)cc3c2)CC1,6.2 nM,16 nM,,3900 nM
CCCCc1nc2cc(OC3CCN(C(C)=N)CC3)ccc2n1Cc1ccc2ccc(C(=N)N)cc2c1,2.8 nM,14 nM,,2000 nM
CC(=N)N1CCC(N(CCCC(=O)O)c2ccc3nc(C)n(Cc4ccc5ccc(C(=N)N)cc5c4)c3c2)CC1,420 nM,670 nM,,5000 nM
CCCc1nc2ccc(OC3CCN(C(C)=N)CC3)cc2n1Cc1ccc2ccc(C(=N)N)cc2c1,0.23 nM,6.8 nM,290 nM,70 nM
CC(=N)N1CCC(Oc2ccc3c(c2)nc(CCC(N)=O)n3Cc2ccc3ccc(C(=N)N)cc3c2)CC1,3.6 nM,10 nM,,> 5000 nM
COC(=O)CCCN(c1ccc2c(c1)nc(C)n2Cc1ccc2ccc(C(=N)N)cc2c1)C1CCN(C(C)=N)CC1,30 nM,60 nM,,6000 nM
CCc1nc2ccc(OC3CCN(C(C)=N)CC3)cc2n1Cc1ccc2ccc(C(=N)N)cc2c1,0.087 nM,7.7 nM,130 nM,60 nM
COC(=O)CN(c1ccc2nc(C)n(Cc3ccc4ccc(C(=N)N)cc4c3)c2c1)C1CCN(C(C)=N)CC1,0.3 nM,11 nM,,98 nM
CCOC(=O)CCC(=O)N(c1ccc2nc(C)n(Cc3ccc4ccc(C(=N)N)cc4c3)c2c1)C1CCN(C(C)=N)CC1,300 nM,256 nM,,4600 nM
CC(=N)N1CCC(N(CC(C)C(=O)O)c2ccc3nc(C)n(Cc4ccc5ccc(C(=N)N)cc5c4)c3c2)CC1 (stereo unspecified),3 nM,47 nM,,650 nM
CC(=N)N1CCC(Oc2ccc3nc(C(C)(C)C)n(Cc4ccc5ccc(C(=N)N)cc5c4)c3c2)CC1,0.046 nM,7 nM,260 nM,48 nM
CC(=N)N1CCC(Oc2ccc3nc(C(C)C)n(Cc4ccc5ccc(C(=N)N)cc5c4)c3c2)CC1,0.026 nM,5.7 nM,68 nM,32 nM
CCCCc1nc2ccc(OC3CCN(C(C)=N)CC3)cc2n1Cc1ccc2ccc(C(=N)N)cc2c1,0.23 nM,5.7 nM,625 nM,230 nM
CC(=N)N1CCC(Oc2ccc3c(c2)nc(CCC(=O)O)n3Cc2ccc3ccc(C(=N)N)cc3c2)CC1,5.9 nM,14 nM,,> 5000 nM
CCC(C)c1nc2ccc(OC3CCN(C(C)=N)CC3)cc2n1Cc1ccc2ccc(C(=N)N)cc2c1 (stereo unspecified),0.12 nM,10 nM,280 nM,160 nM
